Structures are written as SMILES.

The target in this experiment is Caspase 1 (CASP1) (Homo sapiens, UniProt P29466). Kind of experiment: live-cell GFP caspase-1. In kind it is cell-based.
Sequence of Caspase 1 (CASP1) (P29466 whole entry): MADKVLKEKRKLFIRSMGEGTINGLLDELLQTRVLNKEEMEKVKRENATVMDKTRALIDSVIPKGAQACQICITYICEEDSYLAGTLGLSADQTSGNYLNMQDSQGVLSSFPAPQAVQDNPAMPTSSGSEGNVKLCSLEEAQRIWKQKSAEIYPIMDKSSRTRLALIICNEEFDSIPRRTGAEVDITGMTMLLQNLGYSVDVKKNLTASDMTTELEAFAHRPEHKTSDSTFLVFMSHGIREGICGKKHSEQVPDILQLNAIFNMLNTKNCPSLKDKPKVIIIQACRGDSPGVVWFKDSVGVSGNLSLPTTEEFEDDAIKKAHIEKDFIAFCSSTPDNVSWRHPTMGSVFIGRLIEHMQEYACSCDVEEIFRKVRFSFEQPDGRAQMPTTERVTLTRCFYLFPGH
Sequence of Caspase 1 (CASP1) (Q96P20 whole entry R262W partner): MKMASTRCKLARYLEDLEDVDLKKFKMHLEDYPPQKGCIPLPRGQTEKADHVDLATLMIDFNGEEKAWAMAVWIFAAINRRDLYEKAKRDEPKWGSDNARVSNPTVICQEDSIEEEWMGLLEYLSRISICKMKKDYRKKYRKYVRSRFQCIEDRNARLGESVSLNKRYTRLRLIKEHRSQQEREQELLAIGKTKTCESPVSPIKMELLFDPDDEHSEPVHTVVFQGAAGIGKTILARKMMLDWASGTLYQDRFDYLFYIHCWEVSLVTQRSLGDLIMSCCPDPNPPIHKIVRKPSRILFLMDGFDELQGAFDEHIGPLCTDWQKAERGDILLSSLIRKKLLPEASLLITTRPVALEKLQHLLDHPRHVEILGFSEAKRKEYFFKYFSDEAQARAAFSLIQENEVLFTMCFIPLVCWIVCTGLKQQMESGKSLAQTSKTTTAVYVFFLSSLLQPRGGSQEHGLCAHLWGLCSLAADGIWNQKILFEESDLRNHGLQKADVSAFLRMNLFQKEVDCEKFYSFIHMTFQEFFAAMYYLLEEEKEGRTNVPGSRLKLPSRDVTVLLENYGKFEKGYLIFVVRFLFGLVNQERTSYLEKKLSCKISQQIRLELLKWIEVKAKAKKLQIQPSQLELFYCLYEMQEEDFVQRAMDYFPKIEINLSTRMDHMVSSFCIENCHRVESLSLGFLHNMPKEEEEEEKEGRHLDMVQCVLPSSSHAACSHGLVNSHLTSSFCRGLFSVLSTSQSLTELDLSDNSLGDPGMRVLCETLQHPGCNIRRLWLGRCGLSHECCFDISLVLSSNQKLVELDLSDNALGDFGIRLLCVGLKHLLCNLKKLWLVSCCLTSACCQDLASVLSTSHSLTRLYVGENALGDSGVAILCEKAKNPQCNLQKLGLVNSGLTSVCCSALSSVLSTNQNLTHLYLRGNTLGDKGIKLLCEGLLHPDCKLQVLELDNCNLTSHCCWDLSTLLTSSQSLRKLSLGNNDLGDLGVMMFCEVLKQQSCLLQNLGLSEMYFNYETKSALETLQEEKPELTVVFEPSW
Sequence of Caspase 1 (CASP1) (Q9ULZ3 whole entry partner): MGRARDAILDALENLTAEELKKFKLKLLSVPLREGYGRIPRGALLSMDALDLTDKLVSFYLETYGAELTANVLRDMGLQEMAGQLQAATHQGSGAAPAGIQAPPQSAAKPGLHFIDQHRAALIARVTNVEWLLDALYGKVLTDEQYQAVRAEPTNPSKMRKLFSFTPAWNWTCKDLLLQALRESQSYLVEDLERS

As a reminder, the IC50 is the concentration that gives 50% inhibition. Low values mean inhibition by little substance, high ones a need for much substance. Consider `CC(C)(C)[C@H](NC(=O)c1ccc(N)c(Cl)c1)C(=O)N1CCC[C@H]1C(=O)N[C@H](C=O)CC(=O)O` [VRT-043198], for which the IC50 amounted to 4.66 µM.

The values above are taken from publication PMC8865862 (Journal of Inflammation Research, 2022).
